Results published in US10513534B2, “2′-chloro nucleoside analogs for HCV infection” (priority 2012, dated 2019).

How the values were obtained:
[1] = Stability in fresh whole blood; format: in vitro ADME; settings: human whole blood, 0.5 μM
Protocol: Stability of the test compounds was determined in fresh human whole blood with K2EDTA as the anticoagulant (stored refrigerated at 2-8° C. and used within 7 days of receipt). The experiment was conducted with three replicates for each time point. Whole blood, pre-incubated at 37° C. for 10-15 minutes, was fortified with a solution of test compound for a final concentration of 0.5 μM and mixed for 30 sec. At intervals (0, 0.5, 1 and 2 hr), three […] aliquots were combined with 200 μL (each) of an ice-cold solution of the internal standard (carbutamide 500 ng/mL in acetonitrile). The samples were vortexed for 30 sec and then centrifuged at 16100×g for 5 min. The supernatant was analyzed by LC-MS/MS. The MS peak area ratio of the test compound versus the internal standard was calculated and percent unchanged test compound was calculated for each time point using this ratio.

[2] = Liver triphosphate pharmacokinetics after single oral dose in CD-1 mice; format: in vivo; settings: single oral dose 10 mg/kg in PEG 200;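 for Ms Liver TP AUC: pmol·h/g liver normalized to a 1 µmol/kg dose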;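 for Ms Liver TP Cmax: pmol/g liver normalized to a 1 µmol/kg dose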
Protocol: (§1) Internal standard solution was added to the homogenate followed by neutralization with 20% ammonium hydroxide solution and addition of 500 μL 1% formic acid. The tissue samples were extracted by weak anion exchange solid phase extraction (SPE). Post extraction, the eluates were evaporated under nitrogen, followed by reconstitution before injection onto the LC-MS/MS system.

fresh mouse hepatocytes = assay: Release of active metabolite in fresh mouse hepatocytes; format: in vitro ADME; settings: 10 μM
Protocol: (§2) Plates of fresh human and mouse hepatocytes were obtained on ice. The medium was removed and replaced with hepatocyte culture medium (William's E supplemented with penicillin-streptomycin, 1% L-glutamine, 1% insulin-transferrin-selenium and 0.1 μM Dexamethasone (Invitrogen) or with Invitro GRO HI medium complemented with Torpedo antibiotics (Celsis)). Cells were left overnight in an incubator at 37° C. to acclimatize to culture and the medium.
(§3) Hepatocyte incubations were conducted at a final volume of 0.5 mL hepatocyte culture medium/well (0.8 million cells/well for human and 0.5 million cells/well for mouse; 12 well plate no overlay, collagen coat). Culture medium from overnight incubation of cells was removed and replaced with fresh medium, pre-warmed to 37° C., containing 10 μM of test compound from a stock solution in DMSO (final DMSO concentration was 0.1%). At each specific time point, incubation medium was removed and cell monolayers were carefully washed two times with ice-cold PBS. Following the last wash, all PBS was carefully removed and 1.0 mL of extraction solution (ice-cold 70% methanol/30% water) added. Cells were scraped off and suspended in the extraction solution, transferred to 2 mL polypropylene microfuge tubes and intracellular contents extracted overnight at −20° C.
(§4) After the overnight treatment the cellular extracts were prepared by centrifugation at 16,000×g for 10 min to remove cellular debris. The remaining sample was then dried using a refrigerated centrivap concentrator. Dry extracts were reconstituted in 1000 μL of HPLC-grade water and centrifuged at 16,000×g for 10 min. Aliquots (100 μL each) of the supernatant were transferred into a 96 well plate and internal standard (4 ng/mL final concentration) was added as the internal standard (IS) for LC-MS/MS analysis.
(§5) The incubation time points were 6, 24 and 48 hours for human hepatocytes and 1, 4, 8, 12 and 24 hours for mouse hepatocytes.

[3] = Stability in intestinal microsomes; format: in vitro ADME; settings: human intestinal microsomes 1.0 mg/mL, 10 μM, NADPH, 60 min
Protocol: (§6) Stability of test compounds were determined in human liver and intestinal microsomes in duplicate for each matrix. Pooled liver and intestinal microsomal proteins (1.0 mg/mL), suspended in incubation buffer (100 mM potassium phosphate, pH 7.4, 5 mM MgCl2, and 0.1 mM EDTA), were preincubated for 5 min at 37° C. with 10 μM of a test compound from a 10 mM stock solution in DMSO (final DMSO concentration was 0.1%); the reaction was initiated by the addition of NADPH (3 mM final concentration). At specific times (0 and 60 min), 0.1 mL samples were taken and the reaction terminated by the addition of 4 volumes of stop solution (acetonitrile with 500 ng/mL carbutamide as an internal standard). The samples were vortexed for 30 sec and then centrifuged at 16000×g for 10 min. 100 μL of supernatants were transferred to 96 deep-well plates preloaded with 100 μL distilled water and analyzed after mixing by LC-MS/MS. The MS peak area ratio of the test compound versus the internal standard was calculated and percent unchanged test compound over 60 minutes was calculated using this ratio.

[4] = Stability in liver microsomes; format: in vitro ADME; settings: human liver microsomes 1.0 mg/mL, 10 μM, NADPH, 60 min
Protocol: as §6

fresh human hepatocytes = assay: Release of active metabolite in fresh human hepatocytes; format: in vitro ADME; settings: 10 μM
Protocol: as §2, §3, §4, §5

[5] = Liver triphosphate pharmacokinetics after single oral dose in cynomolgus monkeys; format: in vivo; settings: 6 hours post dose, 10 mg/kg oral, normalized to 1 μmol/kg dose
Protocol: For each compound, a single oral dose at 10 mg/kg in PEG 200 (dose volume 3 mL/kg) was administered to cynomolgus monkeys. Untreated animals were used for the collection of control liver. Plasma samples were collected at 0.5, 1, 2, 4, 6, 8, 12 and 24 hours for compound 37, diastereomer 2.
as §1, with “Liver samples were analyzed for the relevant nucleoside triphosphate by LC-MS/MS. […] Appropriate internal” for “Internal”

CC(C)OC(=O)[C@H](C)NP(=O)(OC[C@H]1O[C@@H](n2ccc(=O)[nH]c2=O)[C@](C)(Cl)[C@@H]1O)Oc1ccccc1 (single isomer, unassigned) [Compound 40ii Diastereomer 2]
WB_Human (37° C.; 2 hr) stability (percent remaining) [1]: ++++ (75% < ++++) | Ms Liver TP AUC [2]: +++ (500 < +++ ≤ 1500) | Ms Liver TP Cmax [2]: ++ (15 < ++ ≤ 50) | MsH AUC (fresh mouse hepatocytes): ++++ (1500 < ++++) | MsH Cmax (fresh mouse hepatocytes): +++ (50 < +++ ≤ 100) | HIM (1 hr) stability (percent remaining) [3]: ++++ (75% < ++++) | HLM (1 hr) stability (percent remaining) [4]: ++ (25% < ++ ≤ 50%) | FHH TP AUC (fresh human hepatocytes): ++++ (1500 < ++++) | FHH TP Cmax (fresh human hepatocytes): ++++ (100 < ++++) | FHH TP (6 hr) (fresh human hepatocytes; 6 hr): ++++ (100 < ++++) | FHH TP (24 hr) (fresh human hepatocytes; 24 hr): +++ (50 < +++ ≤ 100) | FHH TP (48 hr) (fresh human hepatocytes; 48 hr): +++ (50 < +++ ≤ 100) | Nucleoside triphosphate in Liver C6 [5]: ++++ (100 < ++++)
